Data as given in patent US20030130123A1, “2-Phenyl-2h-pyridazine-3-ones” (priority 2000, published 2003).

How the values were obtained:
[1] = system: BIDPI (hairy beggarticks); assay: Greenhouse herbicidal action, postemergence treatment; type: in vivo; conditions: 100 = complete destruction, 0 = no damage
Description: (§1) The herbicidal action of the 2-phenylpyridazin-3-one compounds of the formula I could be shown by means of greenhouse experiments: […]
(§2) The cultivation containers used were plastic pots containing loamy sand with approximately 3.0% of humus as a substrate. The seeds of the test plants were sown separately according to species.
(§3) For the purpose of postemergence treatment, the test plants were first raised up to a growth height of 3 to 15 cm, depending on growth form, and then treated with the active compounds suspended or emulsified in water. For this, the test plants were either sown directly and raised in the same containers or they were first raised separately as seedlings and transplanted into the experimental containers a few days before the treatment. The application rate for the postemergence treatment was 15.6 or 7.8 g of a.s./ha.
(§4) The plants were kept species-specifically at temperature from 10-25° C. or 20-35° C. The experimental period extended over 2 to 4 weeks. During this time, the plants were tended, and their reaction to the individual treatments was assessed.
(§5) Assessment was carried out on a scale from 0 to 100. 100 here means no emergence of the plants or complete destruction of at least the above-ground parts and 0 means no damage or normal course of growth.
(§6) The plants used in the greenhouse experiments were made up of the following species:
(§7) The compound Ia.4 from Example 1 and the compound of Example 1-637 (X=H), disclosed in WO 97/07104, were tested in the postemergence process in the manner described.

COMBE (dayflower) = assay: as above; type: in vivo; conditions: 100 = complete destruction, 0 = no damage
Description: as §1, §2, §3, §4, §5, §6, §7

GALAP (catchweed) = assay: as above; type: in vivo; conditions: 100 = complete destruction, 0 = no damage
Description: as §1, §2, §3, §4, §5, §6, §7

IPOSS (morning glory) = assay: as above; type: in vivo; conditions: 100 = complete destruction, 0 = no damage
Description: as §1, §2, §3, §4, §5, §6, §7

ABUTH (velvetleaf) = assay: as above; type: in vivo; conditions: 100 = complete destruction, 0 = no damage
Description: as §1, §2, §3, §4, §5, §6, §7

[2] = application rate 7.8 g/ha (a.s.)
[3] = application rate 15.6 g/ha (a.s.)

CCOC(=O)C(Cl)=Cc1cc(-n2ncc(C(F)(F)F)c(C)c2=O)ccc1Cl [Ia.4, 2-[4-Chloro-3-(2-ethoxycarbonyl-2-chloroethen-1-yl)phenyl]-4-methyl-5-trifluoromethyl-2H-pyridazin-3-one]
Herbicidal action, assessment on a scale from 0 to 100 [1, 2]: 80 | Herbicidal action, assessment on a scale from 0 to 100 [1, 3]: 98 | Herbicidal action, assessment on a scale from 0 to 100 (COMBE (dayflower); [2]): 100 | Herbicidal action, assessment on a scale from 0 to 100 (COMBE (dayflower); [3]): 100 | Herbicidal action, assessment on a scale from 0 to 100 (GALAP (catchweed); [2]): 100 | Herbicidal action, assessment on a scale from 0 to 100 (GALAP (catchweed); [3]): 100 | Herbicidal action, assessment on a scale from 0 to 100 (IPOSS (morning glory); [2]): 100 | Herbicidal action, assessment on a scale from 0 to 100 (IPOSS (morning glory); [3]): 100 | Herbicidal action, assessment on a scale from 0 to 100 (ABUTH (velvetleaf); [2]): 100 | Herbicidal action, assessment on a scale from 0 to 100 (ABUTH (velvetleaf); [3]): 100

C=CCOC(=O)C(Cl)=Cc1cc(-n2ncc(C(F)(F)F)c(C)c2=O)ccc1Cl [Ia.41, 2-[4-Chloro-3-(2-allyloxycarbonyl-2-chloroethen-1-yl)phenyl]-4-methyl-5-trifluoromethyl-2H-pyridazin-3-one]
melting point: 62 to 63 °C

COCCOC(=O)C(Cl)=Cc1cc(-n2ncc(C(F)(F)F)c(C)c2=O)ccc1Cl [Ia.12, 2-{4-Chloro-3-[2-(2-methoxyethoxy)carbonyl-2-chloroethen-1-yl]phenyl}-4-methyl-5-trifluoromethyl-2H-pyridazin-3-one]
melting point: 60 to 62 °C

C#CCOC(=O)C(Cl)=Cc1cc(-n2ncc(C(F)(F)F)c(C)c2=O)ccc1Cl [Ia.42, 2-[4-Chloro-3-(2-propargyloxycarbonyl-2-chloroethen-1-yl)phenyl]-4-methyl-5-trifluoromethyl-2H-pyridazin-3-one]
melting point: 81 to 82 °C

Cc1c(C(F)(F)F)cnn(-c2ccc(Cl)c(C=C(Cl)C(=O)OCCC#N)c2)c1=O [Ia.16, 2-{4-Chloro-3-[2-(2-cyanoethoxy)carbonyl-2-chloroethen-1-yl]phenyl}-4-methyl-5-trifluoromethyl-2H-pyridazin-3-one]
melting point: 78 to 79 °C
